These results are taken from patent US9617276B2, “Compounds and methods for treating AIDS and HIV infections” (priority 2009, dated 2017).

Where two headings read alike, the source gives them in different places.

Broadly, the IC50 is the midpoint of a concentration-inhibition curve. One may read the CC50 as the concentration that lowers cell viability or growth by half.

One series has as its system HIV-1. The series can be described thus: antiviral assay (IC50). The format is cell-based. As for the experimental part: The inhibitory potencies of acyclic and cyclic inhibitors were measured by the assay protocol of Toth and Marshall (Toth, M. V.; Marshall, G. R. A simple, continuous fluorometric assay for HIV protease. Int. J. Pep. Protien Res. 1990, 36, 544-55).

A further series concerns HIV-1LAI. The series is described as follows: drug susceptibility, MT-2 cells, MTT assay, HIV-1LAI. The class given is cell-based. The note with it: for Selectivity Index: ratio of CC50 to EC50 against HIV-1LAI. As for the experimental part:
(§1) All assays were performed in duplicate or triplicate. […] All assays were performed in duplicate or triplicate.
(§2) Each selectivity index denotes a ratio of CC50 to EC50 against HIV-1LAI N.D., not done.
(In general: Formazan colour is commonly taken as a measure of viable cells.)

For the next series, the system named is HIV-2EHO. The series is described as follows: drug susceptibility, MT-2 cells, MTT assay, HIV-2EHO. The class given is cell-based. As for the experimental part:
as §1, §2

In the next series the test system is HIV-2ROD. The series is described as follows: drug susceptibility, MT-2 cells, MTT assay, HIV-2ROD. The format is cell-based. As for the experimental part: as §1, §2
Another series in a line: cytotoxicity CC50. The class given is cell-based, Human. The note with it: human.
A further series has as its system HIV-1NL4-3. The series can be described thus: p24 Gag inhibition in MT-4 cells, HIV-1NL4-3. The format is cell-based. As for the experimental part: as §1
The next series relates to HIV-1MDR/MM. The series can be described thus: microbe, parasite or virus in culture. The class given is cell-based. Particulars: for EC50: Human immunodeficiency virus 1, read-out: EC50 (μM), HIV-1MDR/MM (NSI); for n-fold change of EC50, HIV-1MDR/MM: compared to wild-type HIV-1ERS104pre. As for the experimental part:
(§3) The susceptibility of HIV-1LAI and primary HIV-1 isolates to various drugs were determined as described previously (Koh et al. 2003 Antimicrob Agents Chemother 47:3123-9). Briefly, MT-2 cells (2×10^4/ml) were exposed to 100 50% tissue culture infectious doses (TCID50S) of HIV-1LAI, in the presence or absence of various concentrations of drugs in 96-well microculture plates and were incubated at 37° C. for 7 days. After 100 μl of the medium was removed from each well, 3-(4,5-dimetylthiazol-2-yl)-2,5-diphenyltetrazolium bromide (MTT) solution (10 μl, 7.5 mg/ml in phosphate-buffered saline) was added to each well in the plate, followed by incubation at 37° C. for 3 h. […] All assays were performed in duplicate or triplicate. To determine the susceptibility of primary HIV-1 isolates to drugs, phytohemagglutinin-activated peripheral blood mononuclear cells (PHA-PBMCs; 106/ml) were exposed to 50 TCID50S of each. The target cells were exposed to HIV-1104pre or drug-resistant HIV-1 in the presence or absence of various concentrations of drugs and were incubated for 7 days. Upon the conclusion of the culture, the amounts of p24 Gag protein in the supernatants were determined using a fully automated chemiluminescent enzyme immunoassay system (Lumipulse F; Fujirebio Inc., Tokyo, Japan) (Maeda et al. 2001 J Biol Chem 276:35194-200). To determine the drug susceptibility of certain laboratory HIV-1 strains, MT-4 cells were used as target cells. In brief, MT-4 cells (10^5/ml) were exposed to 100 TCID50S of drug-resistant HIV-1 strains in the presence or absence of various concentrations of drugs and on day 7 of culture, the supernatant was harvested and the amounts of p24 Gag protein were determined. […] All assays were performed in duplicate or triplicate.
(§4) These clinical strains contained 9 to 14 amino acid substitutions in the protease-encoding region, which have reportedly been associated with HIV-1 resistance to various PIs.
(§5) Amino acid substitutions identified in the protease-encoding region compared to the consensus type B sequence cited from the Los Alamos database include L63P in HIV-1ERS104pre; L10I, K14R, L33I, M36I, M46I, F53I, K55R, I62V, L63P, A71V, G73S, V82A, L90M, and I93L in HIV-1MDR/B; L10I, I15V, K20R, L24I, M36I, M46L, I54V, I62V, L63P, K70Q, V82A, and L89M in HIV-1MDR/C; L10I, V11I, T12E, I15V, L19I, R41K, M46L, L63P, A71T, V82A, and L90M in HIV-1MDR/G; L10I, K14R, R41K, M46L, I54V, L63P, A71V, V82A, L90M, I93L in HIV-1MDR/TM; L10I, K43T, M46L, I54V, L63P, A71V, V82A, L90M, and Q92K in HIV-1MDR/MM; L10I, L24I, I33F, E35D, M36I, N37S, M46L, I54V, R57K, I62V, L63P, A71V, G73S, and V82A in HIV-1MDR/JSL. HIV-1ERS104pre served as a source of wild-type HIV-1. EC50s were determined by using PHA-PBMs as target cells, and inhibition of p24 Gag protein production by each drug was used as an end point. Numbers in parentheses represent n-fold changes of EC50s for each isolate compared to EC50s for wild-type HIV-1ERS104pre.

Series [1] concerns HIV-1ERS104pre (wild-type). The series can be described thus: p24 Gag inhibition in PHA-PBMCs, HIV-1ERS104pre. The format is cell-based. The note with it: mean ± 1 SD. As for the experimental part: as §3, §4, §5
The test system of another series is HIV-1MDR/B. The class given is cell-based. Particulars: for EC50 (μM), HIV-1MDR/B (SI): PHA-PBMCs, p24 Gag; for n-fold change of EC50, HIV-1MDR/B: compared to wild-type HIV-1ERS104pre. As for the experimental part:
as §3, §4, §5

A further series relates to HIV-1MDR/C. The format is cell-based. Particulars: for EC50 (μM), HIV-1MDR/C (SI): PHA-PBMCs, p24 Gag; for n-fold change of EC50, HIV-1MDR/C: compared to wild-type HIV-1ERS104pre. As for the experimental part: as §3, §4, §5
A further series deals with HIV-1MDR/G. The format is cell-based. The note with it: for EC50 (μM), HIV-1MDR/G (SI): PHA-PBMCs, p24 Gag; for n-fold change of EC50, HIV-1MDR/G: compared to wild-type HIV-1ERS104pre. As for the experimental part:
as §3, §4, §5

The next series has as its system HIV-1MDR/TM. The class given is cell-based. Particulars: for EC50 (μM), HIV-1MDR/TM (SI): PHA-PBMCs, p24 Gag; for n-fold change of EC50, HIV-1MDR/TM: compared to wild-type HIV-1ERS104pre. As for the experimental part:
as §3, §4, §5

In series [2] the test system is multidrug-resistant clinical HIV-1 isolates (HIV-1MDR). The series can be described thus: microbe, parasite or virus in culture. The format is cell-based. As for the experimental part: as §3, §4, §5
For a further series, the system named is MT-2 cells. The series can be described thus: cytotoxicity CC50. The class given is cell-based, Human. The note with it: MT-2 cells.
Setting [3] is: Human immunodeficiency virus 1, MT2, read-out: EC50 (μM) for HIV-1LAI.
Where [4] appears, read: Human immunodeficiency virus 2, MT2, read-out: EC50 (μM) for HIV-2EHO.
Setting [5] is: Human immunodeficiency virus 2, MT2, read-out: EC50 (μM) for HIV-2ROD.
Where [6] appears, read: Human immunodeficiency virus 1, MT4, read-out: EC50 (μM), HIV-1NL4-3, Table 7, mean ± 1 SD.
Where [7] appears, read: Human immunodeficiency virus 1, MT4, read-out: EC50 (μM), HIV-1NL4-3, Table 9, mean ± 1 SD.

Consider `COc1ccc2c(c1)OCCC=CCCCCN(CC(O)C(Cc1ccccc1)NC(=O)OC1COC3OCCC13)S2(=O)=O` (stereo not drawn) [Compound 14c], for which the 50% inhibitory concentration (IC50) in the series with HIV-1 (Human immunodeficiency virus 1, Table 2, read-out: IC50) is less than 10 nM; with HIV-1 (Human immunodeficiency virus 1, text b167) it was 2 nM; in the series on HIV-1 (Human immunodeficiency virus 1, read-out: IC50), 2 nM. Further, the EC50 was found to be 0.002 ± 0.001 µM in the series with HIV-1LAI (setting [3]); 0.01 ± 0.007 µM in the series with HIV-2EHO (setting [4]); 0.017 ± 0.001 µM with HIV-2ROD (setting [5]); 0.005 ± 0.001 µM in the series with HIV-1NL4-3 (setting [6]); 0.004 ± 0.001 µM in the series with HIV-1NL4-3 (setting [7]); 0.033 ± 0.01 µM in the series on HIV-1MDR/MM. In addition, the CC50 in “cytotoxicity CC50” is 48800 ± 1300 nM.

For the compound `Cc1cccc(C)c1OCC(=O)N[C@@H](Cc1ccccc1)[C@@H](O)C[C@H](Cc1ccccc1)NC(=O)[C@H](C(C)C)N1CCCNC1=O` [LPV, lopinavir], the EC50 in the series with HIV-1LAI (Human immunodeficiency virus 1, MT2, MT-2 cells, MTT assay, mean ± 1 SD, read-out: EC50 (μM) for HIV-1LAI) was 0.039 ± 0.006 µM; in the series on HIV-2EHO (Human immunodeficiency virus 2, MT2, MT-2 cells, MTT assay, mean ± 1 SD, read-out: EC50 (μM) for HIV-2EHO), 0.035 ± 0.025 µM; with HIV-2ROD (Human immunodeficiency virus 2, MT2, MT-2 cells, MTT assay, mean ± 1 SD, read-out: EC50 (μM) for HIV-2ROD) it was 0.028 ± 0.004 µM; in the series with HIV-1NL4-3 (Human immunodeficiency virus 1, MT4, Table 7, mean ± 1 SD, read-out: EC50 (μM), HIV-1NL4-3), 0.046 ± 0.025 µM; in the series on HIV-1NL4-3 (Human immunodeficiency virus 1, MT4, Table 9, mean ± 1 SD, read-out: EC50 (μM), HIV-1NL4-3), 0.035 ± 0.004 µM; with HIV-1MDR/MM it was more than 1 µM. Also, in series [2] (Human immunodeficiency virus 1, read-out: EC50 with multidrug-resistant clinical HIV-1 isolates (mostly)), the EC50 is more than 1000 nM. In addition, the “Selectivity Index” value with HIV-1LAI is >2,560. The same compound had a CC50 in “cytotoxicity CC50” of more than 100000 nM. Further, the “EC50 (μM), HIV-1ERS104pre (wild-type SI)” value in series [1] came to 0.034 ± 0.002 µM. The “EC50 (μM), HIV-1MDR/B (SI)” value in the series on HIV-1MDR/B is more than 1 µM. Further, the “n-fold change of EC50, HIV-1MDR/B” value in the series with HIV-1MDR/B is more than 29. Moreover, the “EC50 (μM), HIV-1MDR/C (SI)” value in the series on HIV-1MDR/C is more than 1 µM. In addition, in the series on HIV-1MDR/C, the “n-fold change of EC50, HIV-1MDR/C” value was more than 29. Moreover, the “EC50 (μM), HIV-1MDR/G (SI)” value in the series on HIV-1MDR/G is 0.26 ± 0.04 µM. In addition, the “n-fold change of EC50, HIV-1MDR/G” value with HIV-1MDR/G is recorded as “(8)”. Further, the “EC50 (μM), HIV-1MDR/TM (SI)” value in the series with HIV-1MDR/TM is more than 1 µM. Further, in the series with HIV-1MDR/TM, the “n-fold change of EC50, HIV-1MDR/TM” value was more than 29. Besides, in the series with HIV-1MDR/MM, the “n-fold change of EC50, HIV-1MDR/MM” value is listed as more than 29.

Take `CCC[C@@]1(CCc2ccccc2)CC(O)=C([C@H](CC)c2cccc(NS(=O)(=O)c3ccc(C(F)(F)F)cn3)c2)C(=O)O1` [TPV, Tipranavir]: the EC50 in the series with HIV-1LAI (setting [3]) is 0.17 ± 0.005 µM; in the series on HIV-2EHO (setting [4]), 0.3 ± 0.15 µM; with HIV-2ROD (setting [5]) it was 0.33 ± 0.07 µM; in the series on HIV-1NL4-3 (setting [6]), 0.32 ± 0.07 µM; with HIV-1NL4-3 (setting [7]), 0.29 ± 0.05 µM; in the series with HIV-1MDR/MM, 0.36 ± 0.06 µM. In addition, the EC50 in series [2] (Human immunodeficiency virus 1, read-out: greatest EC50 value against the clinical isolates) amounted to 380 nM. The “Selectivity Index” value in the series on HIV-1LAI is on record as 320. The same compound showed a CC50 with MT-2 cells of 54100 ± 2100 nM. In addition, in [1], the “EC50 (μM), HIV-1ERS104pre (wild-type SI)” value is 0.12 ± 0.03 µM. Further, in the series on HIV-1MDR/B, the “EC50 (μM), HIV-1MDR/B (SI)” value was determined as 0.18 ± 0.009 µM. Besides, the “n-fold change of EC50, HIV-1MDR/B” value in the series with HIV-1MDR/B is recorded as “(2)”. Besides, the “EC50 (μM), HIV-1MDR/C (SI)” value with HIV-1MDR/C turned out to be 0.38 ± 0.079 µM. Moreover, the “n-fold change of EC50, HIV-1MDR/C” value in the series on HIV-1MDR/C was “(3)”. Also, in the series with HIV-1MDR/G, the “EC50 (μM), HIV-1MDR/G (SI)” value is 0.24 ± 0.08 µM. The “n-fold change of EC50, HIV-1MDR/G” value in the series on HIV-1MDR/G is “(2)”. In the series on HIV-1MDR/TM, the “EC50 (μM), HIV-1MDR/TM (SI)” value is 0.38 ± 0.05 µM. The “n-fold change of EC50, HIV-1MDR/TM” value with HIV-1MDR/TM was “(3)”. For the same compound, in the series on HIV-1MDR/MM, the “n-fold change of EC50, HIV-1MDR/MM” value is reported as “(3)”.
